Data on eight molecules can be found in patent US10000471B2, “Pyrazole P38 map kinase inhibitors” (Respivert Limited, priority 2010, dated 2018).

The subject of data set [1] is TNFα release in THP-1 cells. Briefly: LPS-induced TNFα release in THP-1 cells. The data set is classed as cell-based, human. The note with it: Homo sapiens. On the procedure:
LPS-Induced TNFα Release in THP-1 Cells
THP-1 cells, a human monocytic cell line, were stimulated with 3 μg/mL of LPS (from E. Coli; 0111:B4, Sigma) for 4 hr and the supernatant collected for determination of the TNFα concentration by sandwich ELISA (Duo-set, R&D systems). The inhibition of TNFα production was calculated at each concentration by comparison with vehicle control. The 50% inhibitory concentration (IC50) was determined from the resultant concentration-response curve.

The subject of data set [2] is IL-8 release in d-U937 cells. Briefly: LPS-induced IL-8 release in d-U937 cells. The data set is classed as cell-based, human. The note with it: Homo sapiens, dU937. As to the method: (§1) LPS-Induced TNFα/IL-8 Release in d-U937 Cells
(§2) U937 cells, a human monocytic cell line, were differentiated to macrophage-type cells by incubation with phorbol myristate acetate (PMA; 100 ng/ml) for 48 to 72 hr. Cells were pre-incubated with final concentrations of test compound for 2 hr and were then stimulated with 0.1 μg/mL of LPS (from E. Coli: O111:B4, Sigma) for 4 hr. The supernatant was collected for determination of TNFα and IL-8 concentrations by sandwich ELISA (Duo-set, R&D systems). The inhibition of TNFα production was calculated as a percentage of that achieved by 10 μg/mL of BIRB796 at each concentration of test compound by comparison against vehicle control. The relative 50% effective concentration (REC50) was determined from the resultant concentration-response curve. The inhibition of IL-8 production was calculated at each concentration of test compound by comparison with vehicle control. The 50% inhibitory concentration (IC50) was determined from the resultant concentration-response curve.

The target in data set [3] is T1, p38 MAPKγ (MAPK12) (Homo sapiens, UniProt P53778).
T1 construct: purchased Invitrogen
T1 sequence (P53778 1-367): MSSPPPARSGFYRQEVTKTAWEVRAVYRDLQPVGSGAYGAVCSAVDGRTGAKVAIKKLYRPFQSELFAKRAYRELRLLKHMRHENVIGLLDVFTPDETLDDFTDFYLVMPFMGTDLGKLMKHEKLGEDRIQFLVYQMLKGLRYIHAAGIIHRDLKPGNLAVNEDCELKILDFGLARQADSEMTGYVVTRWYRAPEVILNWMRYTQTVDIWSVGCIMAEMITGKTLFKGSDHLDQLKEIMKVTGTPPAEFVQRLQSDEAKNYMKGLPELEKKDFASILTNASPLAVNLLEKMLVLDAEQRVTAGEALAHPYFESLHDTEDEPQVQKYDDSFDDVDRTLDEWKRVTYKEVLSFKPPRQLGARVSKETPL
Briefly: Enzyme inhibition assay (FRET, Z-LYTE), p38 MAPKγ. Type of data set: biochemical. The note with it: read-out: Enzyme Inhibition IC50 p38γ. On the procedure: (§3) The enzyme inhibitory activities of compounds disclosed herein were determined by fluorescence resonance energy transfer (FRET) using synthetic peptides labelled with both donor and acceptor fluorophores (Z-LYTE, Invitrogen Ltd., Paisley, UK). Recombinant, phosphorylated p38 MAPKγ (MAPK12:Invitrogen) was diluted in HEPES buffer, mixed with the test compound at the desired final concentrations and incubated for 2 hr at RT. The FRET peptide (2 μM) and ATP (100 μM) were added to the enzyme/compound mixture and incubated for 1 hr. Development reagent (protease) was added for 1 hr prior to detection in a fluorescence microplate reader (Varioskan® Flash, ThermoFisher Scientific). The site-specific protease cleaves non-phosphorylated peptide only and eliminates the FRET signal. Phosphorylation levels of each reaction were calculated using the ratio of coumarin emission (donor) over fluorescein emission (acceptor) for which high ratios indicate high phosphorylation and low ratios indicate low phosphorylation levels. The percentage inhibition of each reaction was calculated relative to non-inhibited control and the 50% inhibitory concentration (IC50 value) then calculated from the concentration-response curve.

The test system of data set [4] is Differentiated U937 cells. Briefly: Cell viability MTT assay. Type of data set: cell-based, human. The note with it: negative = apparent increase in viability; for MTT Assay (Viability) 4 h d-U937, percentage loss of cell viability: 4 hr in 5% FCS; for MTT Assay (Viability) 24 h d-U937, percentage loss of cell viability: 24 h in 10% FCS. As to the method: Differentiated U937 cells were pre-incubated with each test compound under two protocols: the first for 4 hr in 5% FCS and the second in 10% FCS for 24 h. The supernatant was replaced with 200 μL of new media and 10 μL of MTT stock solution (5 mg/mL) was added to each well. After incubation for 1 hr the media were removed, 200 μL of DMSO was added to each well and the plates were shaken lightly for 1 hr prior to reading the absorbance at 550 nm. The percentage loss of cell viability was calculated for each well relative to vehicle (0.5% DMSO) treatment. Consequently an apparent increase in cell viability for drug treatment relative to vehicle is tabulated as a negative percentage.
Background: Formazan colour is commonly taken as a measure of viable cells.

Data set [5] relates to ICAM-1 induction in BEAS2B cells. The data set can be described thus: Poly I:C-induced ICAM-1 induction in BEAS2B cells. The data set is classed as cell-based, human. The note with it: Homo sapiens, BEAS-2B, read-out: PolyIC/ICAM1 IC50 BEAS2B. On the procedure: Poly I:C-Induced ICAM-1 Induction in BEAS2B Cells
Poly I:C (1 μg/mL) (Invivogene Ltd., San Diego, Calif.) was transfected into BEAS2B cells (human bronchial epithelial cells, ATCC) with Oligofectamine (Invitrogen, Carlsbad, Calif.). Cells were pre-incubated with final concentrations of test compounds for 2 hr and the level of ICAM1 expression on the cell surface was determined by cell-based ELISA. At a time point 18 hr after poly I:C transfection, cells were fixed with 4% formaldehyde in PBS and then endogenous peroxidase was quenched by the addition of 0.1% sodium azide and 1% hydrogen peroxide. Cells were washed with wash-buffer (0.1% Tween in PBS: PBS-Tween). and after blocking the wells with 5% milk in PBS-Tween for 1 hr, the cells were incubated with anti-human ICAM-1 antibody (Cell Signaling Technology, Danvers, Mass.) in 1% BSA PBS overnight at 4° C. The cells were washed with PBS-Tween and incubated with the secondary antibody (HRP-conjugated anti-rabbit IgG, Dako Ltd., Glostrup, Denmark). The ICAM-1 signal was detected by adding substrate and reading the absorbance at 450 nm against a reference wavelength of 655 nm using a spectrophotometer. The cells were then washed with PBS-Tween and total cell numbers in each well were determined by reading absorbance at 595 nm after Crystal Violet staining and elution by 1% SDS solution. The measured OD 450-655 readings were corrected for cell number by dividing with the OD595 reading in each well. The inhibition of ICAM-1 expression was calculated at each concentration of test compound by comparison with vehicle control. The 50% inhibitory concentration (IC50) was determined from the resultant concentration-response curve.

For data set [6], the system named is TNFα release in d-U937 cells. Briefly: LPS-induced TNFα release in d-U937 cells. The data set is classed as cell-based, human. The note with it: Homo sapiens, dU937, relative to 10 μg/mL BIRB796, read-out: LPS/TNFα REC50 d-U937. As to the method:
as §1, §2

The target of data set [7] is T2, p38 MAPKα isoform (MAPK14) (Homo sapiens, UniProt Q16539).
T2 construct: purchased Invitrogen
Briefly: Enzyme inhibition assay (FRET, Z-LYTE), p38 MAPKα via MAPKAP-K2 activation. Type of data set: biochemical. The note with it: read-out: Enzyme Inhibition IC50 p38α. On the procedure:
as §3
For the p38 MAPKα isoform (MAPK14: Invitrogen), enzyme activity was evaluated indirectly by determining the level of activation/phosphorylation of the down-stream molecule, MAPKAP-K2. The p38 MAPKα protein was mixed with the test compound for 2 hr at RT. […] Development reagent was then added and the mixture incubated for 1 hr before detection by fluorescence completed the assay protocol.

T2 sequence (Q16539 whole entry, canonical isoform): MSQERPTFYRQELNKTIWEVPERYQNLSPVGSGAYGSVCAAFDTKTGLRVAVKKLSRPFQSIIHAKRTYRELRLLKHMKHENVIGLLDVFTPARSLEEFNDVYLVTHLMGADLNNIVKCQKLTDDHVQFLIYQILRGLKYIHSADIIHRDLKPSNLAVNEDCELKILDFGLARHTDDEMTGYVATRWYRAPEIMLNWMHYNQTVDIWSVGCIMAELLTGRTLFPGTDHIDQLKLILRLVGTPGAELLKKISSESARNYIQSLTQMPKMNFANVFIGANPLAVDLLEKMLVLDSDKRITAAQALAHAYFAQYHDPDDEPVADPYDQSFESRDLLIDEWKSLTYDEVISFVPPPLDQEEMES

Consider `COCC(=O)Nc1cc(COc2ccc(NC(=O)Nc3cc(C(C)(C)C)nn3-c3ccc(OC)cc3)c3cccnc23)ccn1` [Example 17, N-(4-((5-(3-(3-tert-Butyl-1-(4-methoxyphenyl)-1H-pyrazol-5-yl)ureido)quinolin-8-yloxy)methyl)pyridin-2-yl)-2-methoxyacetamide], for which the IC50 in data set [1] was greater than 1640 nM; in data set [2], 17100 nM; in data set [3], greater than 16400 nM; in data set [5], greater than 1640 nM; in data set [7] it was 54.2 nM. Further, in data set [4], the “MTT Assay (Viability) 4 h d-U937, percentage loss of cell viability” value is on record as −11.5%. Further, in data set [4], the “MTT Assay (Viability) 24 h d-U937, percentage loss of cell viability” value worked out at 4.0%. For the same molecule, the EC50 in data set [6] was 16200 nM.
Consider `CNC(=O)Nc1cc(COc2ccc(NC(=O)Nc3cc(C(C)(C)C)nn3-c3ccc(OC)cc3)c(Cl)c2Cl)ccn1` [Example 18, 1-(3-tert-Butyl-1-(4-methoxyphenyl)-1H-pyrazol-5-yl)-3-(2,3-dichloro-4-((2-(3-methylureido)pyridin-4-yl)methoxy)phenyl)urea], for which the IC50 is 4.7 nM in data set [1]; 48.4 nM in data set [2]; greater than 16300 nM in data set [3]; 343 nM in data set [5]; 29.4 nM in data set [7]. Also, the “MTT Assay (Viability) 4 h d-U937, percentage loss of cell viability” value in data set [4] is 39.5%. Moreover, the “MTT Assay (Viability) 24 h d-U937, percentage loss of cell viability” value in data set [4] was −4.6%. In data set [6], the EC50 is 6.7 nM.
With `Cc1ccc(-n2nc(C(C)(C)C)cc2NC(=O)Nc2ccc(OCc3ccnc(NC(=O)N4CCCC4)c3)c(Cl)c2Cl)cc1` [Example 19, N-(4-((4-(3-(3-tert-Butyl-1-(p-tolyl)-1H-pyrazol-5-yl)ureido)-2,3-dichlorophenoxy)methyl)pyridin-2-yl)pyrrolidine-1-carboxamide], the IC50 was 12.3 nM in data set [1]; 837 nM in data set [2]; 4370 nM in data set [3]; 23.7 nM in data set [5]; 18.5 nM in data set [7]. For the same molecule, the “MTT Assay (Viability) 4 h d-U937, percentage loss of cell viability” value in data set [4] is listed as −13.5%. Besides, in data set [4], the “MTT Assay (Viability) 24 h d-U937, percentage loss of cell viability” value is recorded as 6.9%. The EC50 in data set [6] was 25.6 nM.
For the molecule `COc1ccc(-n2nc(C(C)(C)C)cc2NC(=O)Nc2ccc(OCc3ccnc(NC(=O)N4CCCC4)c3)c(Cl)c2Cl)cc1` [Example 20, N-(4-((4-(3-(3-tert-Butyl-1-(4-methoxyphenyl)-1H-pyrazol-5-yl)ureido)-2,3-dichlorophenoxy)methyl)pyridin-2-yl)pyrrolidine-1-carboxamide], the IC50 was 45.2 nM in data set [1]; 1060 nM in data set [2]; greater than 15300 nM in data set [3]; 16.5 nM in data set [5]; 30.7 nM in data set [7]. Further, the “MTT Assay (Viability) 4 h d-U937, percentage loss of cell viability” value in data set [4] is listed as −19.1%. Moreover, in data set [4], the “MTT Assay (Viability) 24 h d-U937, percentage loss of cell viability” value is reported as 9.6%. For the same molecule, the EC50 in data set [6] was 69.5 nM.
For `CNC(=O)Nc1cc(COc2ccc(NC(=O)Nc3cc(C(C)(C)C)nn3-c3ccc(C)cc3)c3cccnc23)ccn1` [Example 21, 1-(3-tert-Butyl-1-p-tolyl-1H-pyrazol-5-yl)-3-(8-((2-(3-methylureido)pyridin-4-yl)methoxy)quinolin-5-yl)urea], the IC50 was 1770 nM in data set [1]; 12900 nM in data set [2]; greater than 17300 nM in data set [3]; greater than 1730 nM in data set [5]; 81.5 nM in data set [7]. Besides, the “MTT Assay (Viability) 4 h d-U937, percentage loss of cell viability” value in data set [4] is given as 14.5%. In data set [4], the “MTT Assay (Viability) 24 h d-U937, percentage loss of cell viability” value was −12.0%. Also, in data set [6], the EC50 came to 164 nM.
`CN(C)CCCC(=O)Nc1cc(Oc2ccc(NC(=O)Nc3cc(C(C)(C)C)nn3-c3ccc(CO)cc3)c(Cl)c2Cl)ncn1` [Example 22]: the IC50 in data set [1] was 1.1 nM; in data set [2], 33.8 nM; in data set [3] it was 20.6 nM; in data set [5] it was 4.9 nM; in data set [7], 7.6 nM. Besides, the “MTT Assay (Viability) 4 h d-U937, percentage loss of cell viability” value in data set [4] was −20.9%. Besides, the “MTT Assay (Viability) 24 h d-U937, percentage loss of cell viability” value in data set [4] amounted to 85.2%. Besides, the EC50 in data set [6] was found to be 1.5 nM.
As for `COCC(=O)Nc1nccc(Oc2ccc(NC(=O)Nc3cc(C(C)(C)C)nn3-c3ccc(OC)cc3)c(Cl)c2Cl)n1` [Example 23, N-(4-(4-(3-(3-tert-Butyl-1-(4-methoxyphenyl)-1H-pyrazol-5-yl)ureido)-2,3-dichlorophenoxy)pyrimidin-2-yl)-2-methoxyacetamide], the IC50 in data set [1] turned out to be 2.2 nM; in data set [2] it was 11.9 nM; in data set [3] it was 47.9 nM; in data set [5] it was 2 nM; in data set [7], 15.7 nM. Besides, the “MTT Assay (Viability) 4 h d-U937, percentage loss of cell viability” value in data set [4] is −37.1%. In data set [4], the “MTT Assay (Viability) 24 h d-U937, percentage loss of cell viability” value is reported as −24.5%. Further, the EC50 in data set [6] was 0.3 nM.
In the case of `CNC(=O)Nc1nccc(Oc2ccc(NC(=O)Nc3cc(C(C)(C)C)nn3-c3ccc(CO)cc3)c(Cl)c2Cl)n1` [Example 25, 1-(4-(4-(3-(3-tert-Butyl-1-(4-(hydroxymethyl)phenyl)-1H-pyrazol-5-yl)ureido)-2,3-dichlorophenoxy)pyrimidin-2-yl)-3-methylurea], the IC50 in data set [1] turned out to be 1.7 nM; in data set [2] it was 2.5 nM; in data set [3], 139 nM; in data set [5], 10.8 nM; in data set [7] it was 10.7 nM. In addition, in data set [4], the “MTT Assay (Viability) 4 h d-U937, percentage loss of cell viability” value is −3.5%. Further, the “MTT Assay (Viability) 24 h d-U937, percentage loss of cell viability” value in data set [4] is reported as 58.6%. Besides, the EC50 in data set [6] turned out to be 1.2 nM.
